In PubChem BioAssay AID194 (DTP/NCI, 2004):
Where “and” joins values, the source holds several entries; their conditions need not be identical. Equal entries are not always repeated. Records with an inconclusive call do not appear.

System: BDF1 mice, B16 melanoma s.c., survival/tumor T/C
Assay: NCI In Vivo Anticancer Drug Screen. Data for tumor model B16 Melanoma (subcutaneous) in B6D2F1 (BDF1) mice
Procedure: The antitumor activity of compounds was measured in mice bearing transplantable tumors. Survival or tumor size were measured and the results are expressed as the measurement made in the treated group (T) divided by the measurement made in the vehicle treated control group (C). The tumor model used in this assay is B16 Melanoma (subcutaneous) in B6D2F1 (BDF1) mice

[1] = endpoint: median survival time, dose: 20.0 mg/kg/injection, schedule: Q01DX009 (ip), vehicle: Klucel (hydroxypropylcellulose) (HPC), higher = longer survival
[2] = endpoint: median survival time, dose: 1.0 mg/kg/injection, schedule: Q01DX009 (ip), vehicle: saline, higher = longer survival
[3] = endpoint: median survival time, dose: 2.0 mg/kg/injection, schedule: Q01DX009 (ip), vehicle: saline, higher = longer survival
[4] = endpoint: median survival time, dose: 0.12 mg/kg/injection, schedule: Q01DX009 (ip), vehicle: saline, higher = longer survival

## Cc1c[n+]2c3ccccc3c3ccccc3c2s1
[1]
  T/C: 121 % of control

## CCC1=C(C[C@H]2NCCc3cc(OC)c(OC)cc32)C[C@H]2c3cc(OC)c(OC)cc3CCN2C1
endpoint: median survival time, dose: 2.0 mg/kg/injection, schedule: Q01DX005 (ip), vehicle: saline, higher = longer survival
  T/C: 87 % of control
endpoint: median survival time, dose: 4.0 mg/kg/injection, schedule: Q01DX005 (ip), vehicle: saline, higher = longer survival
  T/C: 93 % of control
endpoint: median survival time, dose: 8.0 mg/kg/injection, schedule: Q01DX005 (ip), vehicle: saline, higher = longer survival
  T/C: 110 % of control
endpoint: median survival time, dose: 16.0 mg/kg/injection, schedule: Q01DX005 (ip), vehicle: saline, higher = longer survival
  T/C: 114 % of control

## Cc1c(N)nc([C@H](CC(N)=O)NC[C@H](N)C(N)=O)nc1C(=O)N[C@H](C(=O)N[C@H](C)[C@@H](O)CC(=O)N[C@H](C(=O)NC(O[C@@H]1O[C@@H](C)[C@@H](N)[C@@H](O)[C@H]1O)C(O)c1nc(-c2nc(C(=O)NCCCCN)cs2)cs1)[C@@H](C)O)[C@@H](O[C@@H]1O[C@@H](CO)[C@@H](O)[C@H](O)[C@@H]1O[C@H]1O[C@H](CO)[C@@H](O)[C@H](OC(N)=O)[C@@H]1O)c1c[nH]cn1 (stereo partly specified)
endpoint: median survival time, dose: 0.12 mg/kg/injection, schedule: Q01DX009 (ip), vehicle: water, higher = longer survival
  T/C: 109 % of control
endpoint: median survival time, dose: 0.25 mg/kg/injection, schedule: Q01DX009 (ip), vehicle: water, higher = longer survival
  T/C: 89 % of control
[2]
  T/C: 180 % of control
[3]
  T/C: 180 % of control
endpoint: median survival time, dose: 2.0 mg/kg/injection, schedule: Q01DX009 (ip), vehicle: water, higher = longer survival
  T/C: 91 % of control
endpoint: median survival time, dose: 4.0 mg/kg/injection, schedule: Q01DX009 (ip), vehicle: saline, higher = longer survival
  T/C: 180 % of control
endpoint: median survival time, dose: 8.0 mg/kg/injection, schedule: Q01DX009 (ip), vehicle: saline, higher = longer survival
  T/C: 206 % of control
endpoint: median survival time, dose: 12.0 mg/kg/injection, schedule: Q01DX009 (ip), vehicle: saline, higher = longer survival
  T/C: 174 % of control
endpoint: median survival time, dose: 16.0 mg/kg/injection, schedule: Q01DX009 (ip), vehicle: saline, higher = longer survival
  T/C: 180 % of control

## O=C1C(=O)c2ccccc2C(O)=C1CC=C(Cl)Cl
endpoint: median survival time, dose: 8.0 mg/kg/injection, schedule: Q01DX009 (ip), vehicle: saline + alcohol, higher = longer survival
  T/C: 87 % of control
endpoint: median survival time, dose: 16.0 mg/kg/injection, schedule: Q01DX009 (ip), vehicle: saline + alcohol, higher = longer survival
  T/C: 109 % of control
endpoint: median survival time, dose: 32.0 mg/kg/injection, schedule: Q01DX009 (ip), vehicle: saline + alcohol, higher = longer survival
  T/C: 77 % of control
endpoint: median tumor weight (est.), dose: 12.5 mg/kg/injection, schedule: Q01DX009 (ip), vehicle: Klucel (hydroxypropylcellulose) (HPC), higher = larger tumour
  T/C: 94 % of control and 104 % of control and 108 % of control
endpoint: median tumor weight (est.), dose: 50.0 mg/kg/injection, schedule: Q01DX009 (ip), vehicle: Klucel (hydroxypropylcellulose) (HPC), higher = larger tumour
  T/C: 53 % of control and 55 % of control and 64 % of control

## CC(c1ccccc1)N1C(=O)CSC1=S (stereo unspecified)
endpoint: median survival time, dose: 400.0 mg/kg/injection, schedule: Q01DX009 (ip), vehicle: Klucel (hydroxypropylcellulose) (HPC), higher = longer survival
  T/C: 89 % of control

## COc1cccc2c1C(=O)c1c(O)c3c(c(O)c1C2=O)C[C@@](O)(C(=O)CO)C[C@@H]3OC1CC(N)C(O)C(C)O1 (stereo partly specified)
[4]
  T/C: 100 % of control and 111 % of control
endpoint: median survival time, dose: 1.0 mg/kg/injection, schedule: Q01DX008 (ip), vehicle: saline, higher = longer survival
  T/C: 100 % of control
endpoint: median survival time, dose: 1.5 mg/kg/injection, schedule: Q01DX008 (ip), vehicle: saline, higher = longer survival
  T/C: 96 % of control

## CC[CH2][Sn]([CH2]CC)([CH2]CC)[O][Sn]([CH2]CC)([CH2]CC)[CH2]CC
endpoint: median survival time, dose: 0.5 mg/kg/injection, schedule: Q01DX009 (ip), vehicle: saline, higher = longer survival
  T/C: 123 % of control
[2]
  T/C: 114 % of control
[3]
  T/C: 100 % of control

## CC[C@]1(O)C[C@H]2CN(CCc3c([nH]c4ccccc34)[C@@](C(=O)OC)(c3cc4c(cc3OC)N(C=O)[C@H]3[C@@](O)(C(=O)OC)[C@H](OC(C)=O)[C@]5(CC)C=CCN6CC[C@]43[C@@H]65)C2)C1
endpoint: median survival time, dose: 0.06 mg/kg/injection, schedule: Q01DX009 (ip), vehicle: saline, higher = longer survival
  T/C: 100 % of control and 115 % of control
[4]
  T/C: 104 % of control and 121 % of control
endpoint: median survival time, dose: 0.13 mg/kg/injection, schedule: Q01DX009 (ip), vehicle: saline, higher = longer survival
  T/C: 100 % of control
endpoint: median survival time, dose: 0.7 mg/kg/injection, schedule: Q04DX003 (ip), vehicle: saline, higher = longer survival
  T/C: 93 % of control
endpoint: median survival time, dose: 1.0 mg/kg/injection, schedule: Q04DX003 (ip), vehicle: saline, higher = longer survival
  T/C: 100 % of control
endpoint: median survival time, dose: 1.5 mg/kg/injection, schedule: Q04DX003 (ip), vehicle: saline, higher = longer survival
  T/C: 113 % of control

## O=C1C=CC(=O)N1c1ccc(Cl)cc1
endpoint: median survival time, dose: 1.25 mg/kg/injection, schedule: Q01DX009 (ip), vehicle: Klucel (hydroxypropylcellulose) (HPC), higher = longer survival
  T/C: 123 % of control
endpoint: median survival time, dose: 5.0 mg/kg/injection, schedule: Q01DX009 (ip), vehicle: Klucel (hydroxypropylcellulose) (HPC), higher = longer survival
  T/C: 102 % of control
endpoint: median survival time, dose: 10.0 mg/kg/injection, schedule: Q01DX009 (ip), vehicle: Klucel (hydroxypropylcellulose) (HPC), higher = longer survival
  T/C: 89 % of control
[1]
  T/C: 98 % of control
